What was measured:
[1] = molecular target: T1, human B1R receptor (CHO K1 cells stably transfected with the human B1R gene) (Homo sapiens, UniProt P46663); test: Functional study on the bradykinin receptor 1 (B1R), Ca2+ fluorescence (Fluo-4) FLIPR/Novostar assay, hB1R cells; assay type: cell-based; conditions: CHO-K1, read-out: % inhibition (human B1R) at 10 μM
T1 construct: expressed in transfected cells; host or cells: CHO K1 cells (Chinese hamster ovary), stably transfected
T1 sequence (P46663 1-353): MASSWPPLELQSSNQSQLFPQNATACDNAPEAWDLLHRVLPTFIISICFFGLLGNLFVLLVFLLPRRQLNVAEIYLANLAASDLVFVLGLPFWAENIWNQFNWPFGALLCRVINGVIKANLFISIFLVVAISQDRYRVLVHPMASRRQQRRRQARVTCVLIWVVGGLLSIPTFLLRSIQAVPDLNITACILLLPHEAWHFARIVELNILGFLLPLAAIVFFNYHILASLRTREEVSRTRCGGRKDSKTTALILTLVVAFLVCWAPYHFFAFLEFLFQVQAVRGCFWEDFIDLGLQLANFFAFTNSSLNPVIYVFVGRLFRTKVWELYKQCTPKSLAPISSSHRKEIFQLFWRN
Method in brief: (§1)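 Stably transfected CHO K1 cells carrying human or rat B1R were Fluo-4 loaded and Ca2+ fluorescence read by FLIPR or Novostar. Compounds were added first at 10 μM for % activation, then the EC80 agonist was applied after 6-20 min (human: Lys-Des-Arg9-bradykinin; rat: Des-Arg9-bradykinin). % inhibition is relative to maximum achievable inhibition, and IC50 comes from concentration series.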

[2] = molecular target: T2, B1R receptor of the rat (CHO K1 cells stably transfected with the B1R gene of the rat) (Rattus norvegicus, UniProt P97583); test: Functional study on the bradykinin receptor 1 (B1R), Ca2+ fluorescence (Fluo-4) FLIPR/Novostar assay, rB1R cells; assay type: cell-based; conditions: CHO-K1, 10 μM, read-out: % inhibition (rat B1R) at 10 μM
T2 construct: expressed in transfected cells; host or cells: CHO K1 cells (Chinese hamster ovary), stably transfected
T2 sequence (P97583 1-337): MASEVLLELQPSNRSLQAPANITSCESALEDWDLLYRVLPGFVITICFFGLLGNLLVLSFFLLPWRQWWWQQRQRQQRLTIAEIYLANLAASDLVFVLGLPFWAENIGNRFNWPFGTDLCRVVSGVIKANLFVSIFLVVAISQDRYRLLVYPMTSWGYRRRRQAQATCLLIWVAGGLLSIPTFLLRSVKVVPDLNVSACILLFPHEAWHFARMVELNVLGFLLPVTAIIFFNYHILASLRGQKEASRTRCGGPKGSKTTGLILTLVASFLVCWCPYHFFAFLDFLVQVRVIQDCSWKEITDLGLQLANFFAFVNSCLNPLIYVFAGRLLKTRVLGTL
Method in brief: as §1

inhibition at 10 µM [1] [%] | inhibition at 10 µM [2] [%] | Structure (SMILES)
100 | 109 | Cc1cc(N2CC(N(C)C(=O)c3ccc4c(c3)[C@H](NC(=O)c3ccccc3Cl)CC4)C2)ccn1 [Example H-160, (3R)-3-[(2-Chloro-benzoyl)amino]-N-methyl-N-[1-(2-methyl-pyridin-4-yl)-azetidin-3-yl]-2,3-dihydro-1H-indene-5-carboxylic acid amide]
99 | 111 | Cc1cc(N2CC(N(C)C(=O)c3ccc4c(c3)[C@H](N3Cc5cccc(Cl)c5C3=O)CC4)C2)ccn1 [Example H-161, (3R)-3-(4-Chloro-3-oxo-1,2-dihydro-isoindol-2-yl)-N-methyl-N-[1-(2-methyl-pyridin-4-yl)-azetidin-3-yl]-2,3-dihydro-1H-indene-5-carboxylic acid amide]
100 | 105 | Cc1cc(N2CCC(N(C)C(=O)c3ccc4c(c3)[C@H](NC(=O)c3ccccc3C)CC4)CC2)nc(C)n1 [Example H-162, (3R)-N-[1-(2,6-Dimethyl-pyrimidin-4-yl)-piperidin-4-yl]-N-methyl-3-[(2-methyl-benzoyl)amino]-2,3-dihydro-1H-indene-5-carboxylic acid amide]
99 | 104 | Cc1cc(N2CCC(N(C)C(=O)c3ccc4c(c3)[C@H](NC(=O)c3c(F)cccc3Cl)CC4)CC2)nc(C)n1 [Example H-163, (3R)-3-[(2-Chloro-6-fluoro-benzoyl)amino]-N-[1-(2,6-dimethyl-pyrimidin-4-yl)-piperidin-4-yl]-N-methyl-2,3-dihydro-1H-indene-5-carboxylic acid amide]
100 | 105 | CN(C(=O)c1ccc2c(c1)[C@H](NC(=O)c1cccc(F)c1Cl)CC2)C1CCN(c2ccncn2)CC1 [Example H-164, (3R)-3-[(2-Chloro-3-fluoro-benzoyl)amino]-N-methyl-N-(1-pyrimidin-4-yl-piperidin-4-yl)-2,3-dihydro-1H-indene-5-carboxylic acid amide]
100 | 105 | Cc1cc(N2CCC(N(C)C(=O)c3ccc4c(c3)[C@H](NC(=O)c3ccc(F)cc3Cl)CC4)CC2)nc(C)n1 [Example H-165, (3R)-3-[(2-Chloro-4-fluoro-benzoyl)amino]-N-[1-(2,6-dimethyl-pyrimidin-4-yl)-piperidin-4-yl]-N-methyl-2,3-dihydro-1H-indene-5-carboxylic acid amide]
100 | 55 | Cc1cc(N2CCC(N(C)C(=O)c3ccc4c(c3)[C@H](N(C(=O)c3ccccc3Cl)C(C)C)CC4)CC2)nc(C(C)C)n1 [Example H-166, (3R)-3-[(2-Chloro-benzoyl)-isopropyl-amino]-N-[1-(2-isopropyl-6-methyl-pyrimidin-4-yl)-piperidin-4-yl]-N-methyl-2,3-dihydro-1H-indene-5-carboxylic acid amide]
100 | 109 | CCN(C(=O)c1ccc(F)cc1Cl)[C@@H]1CCc2ccc(C(=O)N(C)C3CCN(c4cc(C)nc(C)n4)CC3)cc21 [Example H-167, (3R)-3-[(2-Chloro-4-fluoro-benzoyl)-ethyl-amino]-N-[1-(2,6-dimethyl-pyrimidin-4-yl)-piperidin-4-yl]-N-methyl-2,3-dihydro-1H-indene-5-carboxylic acid amide]
100 | 104 | Cc1cc(N2CCC(N(C)C(=O)c3ccc4c(c3)[C@H](N(C)C(=O)c3ccc(F)cc3Cl)CC4)CC2)nc(C)n1 [Example H-168, (3R)-3-[(2-Chloro-4-fluoro-benzoyl)-methyl-amino]-N-[1-(2,6-dimethyl-pyrimidin-4-yl)-piperidin-4-yl]-N-methyl-2,3-dihydro-1H-indene-5-carboxylic acid amide]
100 | 106 | Cc1cc(N2CCC(N(C)C(=O)c3ccc4c(c3)[C@H](N(C)C(=O)c3ccccc3C)CC4)CC2)nc(C)n1 [Example H-169, (3R)-N-[1-(2,6-Dimethyl-pyrimidin-4-yl)-piperidin-4-yl]-N-methyl-3-[methyl-(2-methyl-benzoyl)-amino]-2,3-dihydro-1H-indene-5-carboxylic acid amide]
100 | 106 | CCN(C(=O)c1ccccc1C)[C@@H]1CCc2ccc(C(=O)N(C)C3CCN(c4cc(C)nc(C)n4)CC3)cc21 [Example H-170, (3R)-N-[1-(2,6-Dimethyl-pyrimidin-4-yl)-piperidin-4-yl]-3-[ethyl-(2-methyl-benzoyl)-amino]-N-methyl-2,3-dihydro-1H-indene-5-carboxylic acid amide]

More lines, now with the values behind:

Structure (SMILES) | inhibition at 10 µM [1] [%] | inhibition at 10 µM [2] [%]
CN(C(=O)c1ccc2c(c1)[C@H](NC(=O)c1ccccc1Cl)CC2)C1CCN(c2ccncn2)CC1 [Example H-147, (3R)-3-[(2-Chloro-benzoyl)amino]-N-methyl-N-(1-pyrimidin-4-yl-piperidin-4-yl)-2,3-dihydro-1H-indene-5-carboxylic acid amide] | 99 | 107
CN(C(=O)c1ccc2c(c1)[C@H](N(C)C(=O)c1ccccc1Cl)CC2)C1CCN(c2ccncn2)CC1 [Example H-148, (3R)-3-[(2-Chloro-benzoyl)-methyl-amino]-N-methyl-N-(1-pyrimidin-4-yl-piperidin-4-yl)-2,3-dihydro-1H-indene-5-carboxylic acid amide] | 89 | 99
Cc1cc(N2CCC(N(C)C(=O)c3ccc4c(c3)[C@H](N(C)C(=O)c3ccccc3Cl)CC4)CC2)nc(C)n1 [Example H-149, (3R)-3-[(2-Chloro-benzoyl)-methyl-amino]-N-[1-(2,6-dimethyl-pyrimidin-4-yl)-piperidin-4-yl]-N-methyl-2,3-dihydro-1H-indene-5-carboxylic acid amide] | 100 | 101
CC(C)N(C(=O)c1ccccc1Cl)[C@@H]1CCc2ccc(C(=O)N(C)C3CCN(c4ccncc4)CC3)cc21 [Example H-150, (3R)-3-[(2-Chloro-benzoyl)-isopropyl-amino]-N-methyl-N-(1-pyridin-4-yl-piperidin-4-yl)-2,3-dihydro-1H-indene-5-carboxylic acid amide] | 89 | 98
Cc1cc(N2CCC(N(C)C(=O)c3cc4c(cc3F)[C@H](NC(=O)c3ccccc3Cl)CC4)CC2)nc(C)n1 [Example H-151, (1R)-1-[(2-Chloro-benzoyl)amino]-N-[1-(2,6-dimethyl-pyrimidin-4-yl)-piperidin-4-yl]-6-fluoro-N-methyl-2,3-dihydro-1H-indene-5-carboxylic acid amide] | 100 | 96
Cc1cc(N2CCC(N(C)C(=O)c3cc4c(cc3F)[C@H](NC(=O)c3ccccc3Cl)CC4)CC2)ncn1 [Example H-152, (1R)-1-[(2-Chloro-benzoyl)amino]-6-fluoro-N-methyl-N-[1-(6-methyl-pyrimidin-4-yl)-piperidin-4-yl]-2,3-dihydro-1H-indene-5-carboxylic acid amide] | 82 | 93
CN(C(=O)c1ccc2c(c1)[C@H](N(C)C(=O)c1ccccc1Cl)CC2)C1CCN(c2ccncc2)CC1 [Example H-153, (3R)-3-[(2-Chloro-benzoyl)-methyl-amino]-N-methyl-N-(1-pyridin-4-yl-piperidin-4-yl)-2,3-dihydro-1H-indene-5-carboxylic acid amide] | 100 | 101
CC(C)N(C(=O)c1ccccc1Cl)[C@@H]1CCc2cc(F)c(C(=O)N(C)C3CCN(c4ccncc4)CC3)cc21 [Example H-155, (3R)-3-[(2-Chloro-benzoyl)-isopropyl-amino]-6-fluoro-N-methyl-N-(1-pyridin-4-yl-piperidin-4-yl)-2,3-dihydro-1H-indene-5-carboxylic acid amide] | 62 | 104
CCN(C(=O)c1ccc2c(c1)[C@H](NC(=O)c1ccccc1Cl)CC2)C1CCN(c2ncnc3nc[nH]c23)CC1 [Example H-156, (3R)-3-[(2-Chloro-benzoyl)amino]-N-ethyl-N-[1-(7H-purin-6-yl)-piperidin-4-yl]-2,3-dihydro-1H-indene-5-carboxylic acid amide] | 90 | 101
CC(C)N(C(=O)c1ccccc1Cl)[C@@H]1CCc2cc(C(=O)N(C)C3CCN(c4ccncc4)CC3)c(F)cc21 [Example H-158, (1R)-1-[(2-Chloro-benzoyl)isopropyl-amino]-6-fluoro-N-methyl-N-(1-pyridin-4-yl-piperidin-4-yl)-2,3-dihydro-1H-indene-5-carboxylic acid amide] | 23 | 61
